Where two headings read alike, the source gives them in different places. Peptide text beside a SMILES is read from it. * marks the point of attachment. NOTA = O=C(O)CN1CCN(CC(=O)O)CCN(CC(=O)*)CC1; AEEEA = NCCOCCOCCOCC(=O)O
Legend:
Assay type in all cases: in vivo, BALB/C nude mice
[1] = test system: A549-PD-L2 tumor xenograft models; assay: Dynamic micro-PET imaging in A549-PD-L2 xenografts; conditions: n = 3
Description: (§1) Micro-PET imaging was conducted using an Inveon PET scanner (Siemens, Germany). Dynamic PET examine were acquired over the first 60 min following the simultaneous injection of 7.4 to 9.25 MBq (200 to 250 μCi) of [^68Ga]Ga-HN11-1 and [^68Ga]Ga-HN11-2. After reconstructing the images and delineating the regions of interest (ROIs), time-radioactivity curves were plotted to obtain the Tumor/Muscle (T/M) ratios. %ID/g represents the percentage of the injected dose of the radiotracer that accumulates in a specific tissue per gram of tissue weight. For the biodistribution study, the xenograft models received an intravenous injection of 3.7 to 5.5 MBq (100 to 150 μCi) of [^68Ga]Ga-HN11-1. After the designated period (10, 30, 60, and 90 min), the mice were euthanized, and important tissues and organs were dissected and collected. The samples were counted using the γ-counter for determining the %ID/g, presented as mean ± standard deviation (SD).
(§2) A549 cell lines were provided by the China Center for Type Culture Collection (CCTCC) and cultured in RPMI-1640 medium supplemented with 10 % fetal bovine serum and 100 U/mL penicillin-streptomycin. The lentivirus system was implemented to introduce PD-L2 (PDCD1LG2) over-expressed cDNA into the A549 cells. The viral vectors were produced in 293T cells and co-transfected with the psAX2, pMD2G and PD-L2 plasmids. A549 cells transduced with the vectors were selectively grown in 1.6 μg/mL puromycin. Transfection efficiency was identified by WB and real-time quantitative PCR. All the cells were cultured in an incubator at 37° C with 5 % CO2 atmosphere. A549 and A549-PD-L2 cells (5 × 10^6, 200 μL)were subcutaneously implanted into the right shoulder of BALB/C nude mice (male, 4-6 weeks), respectively. When the tumors reached to 5 - 8 mm in diameter, the mice were subjected to in vivo and ex vivo studies. All the mice were purchased from the Laboratory Animal Center of Central South University.

[2] = Biodistribution (γ-counter); conditions: male, BALB/C nude, mouse, iv, total radioactivity, mean ± SD, n = 3; for tissue uptake at 10 min / tissue to tissue ratio at 10 min: 10 min p.i.; for tissue uptake at 0.5 h / tissue to tissue ratio at 0.5 h: 30 min p.i.; for tissue uptake at 1.5 h / tissue to tissue ratio at 1.5 h: 90 min p.i.
Description: as §1, §2

[3] = test system: A549-PD-L2 xenograft tumor models; assay: Biodistribution (γ-counter); conditions: mean ± SD, n = 3
Description: as §1, §2

[4] = large intestine, read-out: Large intestine uptake
[5] = muscle, read-out: Muscle uptake
[6] = small intestine, read-out: Small intestine uptake
[7] = tumor and blood, read-out: Tumor/Blood ratio
[8] = tumor and brain, read-out: Tumor/Brain ratio
[9] = tumor and heart, read-out: Tumor/Heart ratio
[10] = tumor and liver, read-out: Tumor/Liver ratio
[11] = tumor and lung, read-out: Tumor/Lung ratio
[12] = tumor and muscle, read-out: Tumor/Muscle ratio

- tissue uptake at 10 min ([2]; bone, read-out: Bone uptake): 0.68 ± 0.06 %ID/g
- tissue uptake at 0.5 h ([2]; bone, read-out: Bone uptake): 0.6 ± 0.03 %ID/g
- tissue uptake at 1 h ([2]; bone, 60 min HN11-1 Block, read-out: Bone uptake): 0.43 ± 0.07 %ID/g
- tissue uptake at 1 h ([2]; bone, 60 min p.i., read-out: Bone uptake): 0.41 ± 0.08 %ID/g
- tissue uptake at 1.5 h ([2]; bone, read-out: Bone uptake): 0.31 ± 0.06 %ID/g
- tissue uptake at 10 min ([2]; brain, read-out: Brain uptake): 0.17 ± 0.03 %ID/g
- tissue uptake at 0.5 h ([2]; brain, read-out: Brain uptake): 0.12 ± 0.03 %ID/g
- tissue uptake at 1 h ([2]; brain, 60 min HN11-1 Block, read-out: Brain uptake): 0.07 ± 0.01 %ID/g
- tissue uptake at 1 h ([2]; brain, 60 min p.i., read-out: Brain uptake): 0.07 ± 0.01 %ID/g
- tissue uptake at 1.5 h ([2]; brain, read-out: Brain uptake): 0.03 ± 0.01 %ID/g
- tissue uptake at 10 min ([2]; kidney, read-out: Kidney uptake): 55.6 ± 6.6 %ID/g
- tissue uptake at 10 min [2, 4]: 1.02 ± 0.06 %ID/g
- tissue uptake at 0.5 h [2, 4]: 0.48 ± 0.09 %ID/g
- tissue uptake at 1 h ([2]; large intestine, 60 min HN11-1 Block, read-out: Large intestine uptake): 0.23 ± 0.05 %ID/g
- tissue uptake at 1 h ([2]; large intestine, 60 min p.i., read-out: Large intestine uptake): 0.21 ± 0.05 %ID/g
- tissue uptake at 1.5 h [2, 4]: 0.1 ± 0.01 %ID/g
- tissue uptake at 10 min [2, 5]: 0.89 ± 0.02 %ID/g
- tissue uptake at 0.5 h [2, 5]: 0.69 ± 0.07 %ID/g
- tissue uptake at 1 h ([2]; muscle, 60 min HN11-1 Block, read-out: Muscle uptake): 0.56 ± 0.04 %ID/g
- tissue uptake at 1 h ([2]; muscle, 60 min p.i., read-out: Muscle uptake): 0.56 ± 0.09 %ID/g
- tissue uptake at 1.5 h [2, 5]: 0.15 ± 0.03 %ID/g
- tissue uptake at 10 min [2, 6]: 0.86 ± 0.09 %ID/g
- tissue uptake at 0.5 h [2, 6]: 0.62 ± 0.04 %ID/g
- tissue uptake at 1 h ([2]; small intestine, 60 min HN11-1 Block, read-out: Small intestine uptake): 0.34 ± 0.04 %ID/g
- tissue uptake at 1 h ([2]; small intestine, 60 min p.i., read-out: Small intestine uptake): 0.21 ± 0.02 %ID/g
- tissue uptake at 1.5 h [2, 6]: 0.16 ± 0.05 %ID/g
- tissue to tissue ratio at 10 min [2, 7]: 0.58 ± 0.15
- tissue to tissue ratio at 0.5 h [2, 7]: 2.66 ± 0.47
- tissue to tissue ratio at 1 h ([2]; tumor and blood, 60 min p.i., read-out: Tumor/Blood ratio): 6.41 ± 0.98
- tissue to tissue ratio at 1.5 h [2, 7]: 2.58 ± 0.52
- tissue to tissue ratio at 1 h ([2]; tumor and blood, with HN11-1 (block; amount not stated), 60 min HN11-1 Block, read-out: Tumor/Blood ratio): 1.94 ± 0.67
- tissue to tissue ratio at 10 min [2, 8]: 10.3 ± 3.45
- tissue to tissue ratio at 0.5 h [2, 8]: 30.9 ± 8.94
- tissue to tissue ratio at 1 h ([2]; tumor and brain, 60 min p.i., read-out: Tumor/Brain ratio): 31.9 ± 7.97
- tissue to tissue ratio at 1.5 h [2, 8]: 12.3 ± 2.45
- tissue to tissue ratio at 1 h ([2]; tumor and brain, with HN11-1 (block; amount not stated), 60 min HN11-1 Block, read-out: Tumor/Brain ratio): 9.41 ± 2.19
- tissue to tissue ratio at 10 min [2, 9]: 1.15 ± 0.19
- tissue to tissue ratio at 0.5 h [2, 9]: 4.13 ± 0.21
- tissue to tissue ratio at 1 h ([2]; tumor and heart, 60 min p.i., read-out: Tumor/Heart ratio): 12.7 ± 2.22
- tissue to tissue ratio at 1.5 h [2, 9]: 3 ± 0.15
- tissue to tissue ratio at 1 h ([2]; tumor and heart, with HN11-1 (block; amount not stated), 60 min HN11-1 Block, read-out: Tumor/Heart ratio): 3.68 ± 1.43
- tissue to tissue ratio at 10 min [2, 10]: 0.56 ± 0.07
- tissue to tissue ratio at 0.5 h [2, 10]: 2.61 ± 0.82
- tissue to tissue ratio at 1 h ([2]; tumor and liver, 60 min p.i., read-out: Tumor/Liver ratio): 2.53 ± 0.75
- tissue to tissue ratio at 1.5 h [2, 10]: 2.13 ± 1.27
- tissue to tissue ratio at 1 h ([2]; tumor and liver, with HN11-1 (block; amount not stated), 60 min HN11-1 Block, read-out: Tumor/Liver ratio): 0.57 ± 0.27
- tissue to tissue ratio at 10 min [2, 11]: 1.04 ± 0.22
- tissue to tissue ratio at 0.5 h [2, 11]: 3.69 ± 0.24
- tissue to tissue ratio at 1 h ([2]; tumor and lung, 60 min p.i., read-out: Tumor/Lung ratio): 3.01 ± 0.53
- tissue to tissue ratio at 1.5 h [2, 11]: 1.05 ± 0.24
- tissue to tissue ratio at 1 h ([2]; tumor and lung, with HN11-1 (block; amount not stated), 60 min HN11-1 Block, read-out: Tumor/Lung ratio): 0.69 ± 0.23
- tissue to tissue ratio at 10 min [2, 12]: 1.82 ± 0.32
- tissue to tissue ratio at 0.5 h [2, 12]: 5.11 ± 0.25
- tissue to tissue ratio at 1 h ([2]; tumor and muscle, 60 min p.i., read-out: Tumor/Muscle ratio): 4.11 ± 1.25
- tissue to tissue ratio at 1.5 h [2, 12]: 2.66 ± 0.43
- tissue to tissue ratio at 1 h ([2]; tumor and muscle, with HN11-1 (block; amount not stated), 60 min HN11-1 Block, read-out: Tumor/Muscle ratio): 1.11 ± 0.27
- tissue uptake at 10 min ([2]; tumor, read-out: Tumor uptake): 1.61 ± 0.28 %ID/g
- tissue uptake at 0.5 h ([2]; tumor, read-out: Tumor uptake): 3.52 ± 0.35 %ID/g
- tissue uptake at 1 h ([2]; tumor, 60 min HN11-1 Block, read-out: Tumor uptake): 0.63 ± 0.18 %ID/g
- tissue uptake at 1 h ([2]; tumor, 60 min p.i., read-out: Tumor uptake): 2.2 ± 0.3 %ID/g
- tissue uptake at 1.5 h ([2]; tumor, read-out: Tumor uptake): 0.39 %ID/g
- Blood uptake ([3]; 10 min p.i.): 2.83 ± 0.21 %ID/g
- Heart uptake ([3]; 10 min p.i.): 1.41 ± 0.10 %ID/g
- Liver uptake ([3]; 10 min p.i.): 2.90 ± 0.47 %ID/g
- Lung uptake ([3]; 10 min p.i.): 1.56 ± 0.06 %ID/g
- Spleen uptake ([3]; 10 min p.i.): 1.91 ± 0.14 %ID/g
- Stomach uptake ([3]; 10 min p.i.): 1.27 ± 0.14 %ID/g
- Blood uptake ([3]; 30 min p.i.): 1.34 ± 0.16 %ID/g
- Heart uptake ([3]; 30 min p.i.): 0.85 ± 0.10 %ID/g
- Kidney uptake ([3]; 30 min p.i.): 66.15 ± 0.73 %ID/g
- Liver uptake ([3]; 30 min p.i.): 1.44 ± 0.31 %ID/g
- Lung uptake ([3]; 30 min p.i.): 0.96 ± 0.09 %ID/g
- Spleen uptake ([3]; 30 min p.i.): 0.86 ± 0.16 %ID/g
- Stomach uptake ([3]; 30 min p.i.): 0.48 ± 0.04 %ID/g
- Blood uptake ([3]; 60 min HN11-1 Block): 0.33 ± 0.02 %ID/g
- Heart uptake ([3]; 60 min HN11-1 Block): 0.18 ± 0.02 %ID/g
- Kidney uptake ([3]; 60 min HN11-1 Block): 76.77 ± 7.10 %ID/g
- Liver uptake ([3]; 60 min HN11-1 Block): 1.20 ± 0.32 %ID/g
- Lung uptake ([3]; 60 min HN11-1 Block): 0.92 ± 0.04 %ID/g
- Spleen uptake ([3]; 60 min HN11-1 Block): 0.96 ± 0.17 %ID/g
- Stomach uptake ([3]; 60 min HN11-1 Block): 0.26 ± 0.05 %ID/g
- Blood uptake ([3]; 60 min p.i.): 0.34 ± 0.01 %ID/g
- Heart uptake ([3]; 60 min p.i.): 0.18 ± 0.02 %ID/g
- Kidney uptake ([3]; 60 min p.i.): 74.56 ± 3.78 %ID/g
- Liver uptake ([3]; 60 min p.i.): 0.91 ± 0.14 %ID/g
- Lung uptake ([3]; 60 min p.i.): 0.74 ± 0.04 %ID/g
- Spleen uptake ([3]; 60 min p.i.): 0.51 ± 0.17 %ID/g
- Stomach uptake ([3]; 60 min p.i.): 0.19 ± 0.03 %ID/g
- Blood uptake ([3]; 90 min p.i.): 0.16 ± 0.03 %ID/g
- Heart uptake ([3]; 90 min p.i.): 0.13 ± 0.01 %ID/g
- Kidney uptake ([3]; 90 min p.i.): 87.01 ± 3.40 %ID/g
- Liver uptake ([3]; 90 min p.i.): 0.28 ± 0.17 %ID/g
- Lung uptake ([3]; 90 min p.i.): 0.40 ± 0.11 %ID/g
- Spleen uptake ([3]; 90 min p.i.): 0.21 ± 0.04 %ID/g
- Stomach uptake ([3]; 90 min p.i.): 0.20 ± 0.02 %ID/g
SMILES: CC[C@H](C)[C@H](NC(=O)[C@H](CCCNC(=N)N)NC(=O)CNC(=O)[C@H](CCC(=O)O)NC(=O)[C@H](CC(N)=O)NC(=O)[C@H](Cc1ccc(O)cc1)NC(=O)[C@H](CCCNC(=N)N)NC(=O)[C@H](Cc1ccc(O)cc1)NC(=O)[C@H](Cc1c[nH]cn1)NC(=O)COCCOCCOCCNC(=O)CN1CCN(CC(=O)O)CCN(CC(=O)O)CC1)C(=O)N[C@@H](CCCNC(=N)N)C(=O)N[C@@H](CC(N)=O)C(=O)O [[^68Ga]Ga-HN11-1, metal not drawn] ({NOTA-AEEEA}-HYRYNEGRIRN-OH)
- tumor uptake ([1]; 10 min after injection): 2.61 ± 0.16 %ID/g
- tumor uptake ([1]; 20 min after injection): 2.97 ± 0.18 %ID/g
- tumor uptake ([1]; 30 min after injection): 3.36 ± 0.29 %ID/g
- tumor uptake ([1]; 40 min after injection): 3.22 ± 0.23 %ID/g
- tumor uptake ([1]; 50 min after injection): 3.06 ± 0.36 %ID/g
- tumor uptake ([1]; 60 min after injection): 2.76 ± 0.42 %ID/g

Source: PMC11528066, “Noninvasive Monitoring of Programmed Death-Ligand 2 Expression with Positron Emission Tomography using ^68Ga-labeled Peptide Antagonist in Preclinical and Exploratory Human Studies” (Research, 2024)
